Test results as given in US8673903B2, “Substituted 8-alkoxy-2-aminotetralin derivatives, and use thereof” (Bayer Intellectual Property GmbH, priority 2010, dated 2014).

Tests used:
[1] = molecular target: T1, soluble guanylate cyclase (sGC) (Rattus norvegicus, UniProt P20595); test: Stimulation of sGC enzyme activity (PPi luminescence detection); format: biochemical; details: for EC50: read-out: EC50 (concentration at 50% of maximum efficacy), activating action at the sGC enzyme in vitro
T1 construct: made in house
T1 sequence (P20595 1-619): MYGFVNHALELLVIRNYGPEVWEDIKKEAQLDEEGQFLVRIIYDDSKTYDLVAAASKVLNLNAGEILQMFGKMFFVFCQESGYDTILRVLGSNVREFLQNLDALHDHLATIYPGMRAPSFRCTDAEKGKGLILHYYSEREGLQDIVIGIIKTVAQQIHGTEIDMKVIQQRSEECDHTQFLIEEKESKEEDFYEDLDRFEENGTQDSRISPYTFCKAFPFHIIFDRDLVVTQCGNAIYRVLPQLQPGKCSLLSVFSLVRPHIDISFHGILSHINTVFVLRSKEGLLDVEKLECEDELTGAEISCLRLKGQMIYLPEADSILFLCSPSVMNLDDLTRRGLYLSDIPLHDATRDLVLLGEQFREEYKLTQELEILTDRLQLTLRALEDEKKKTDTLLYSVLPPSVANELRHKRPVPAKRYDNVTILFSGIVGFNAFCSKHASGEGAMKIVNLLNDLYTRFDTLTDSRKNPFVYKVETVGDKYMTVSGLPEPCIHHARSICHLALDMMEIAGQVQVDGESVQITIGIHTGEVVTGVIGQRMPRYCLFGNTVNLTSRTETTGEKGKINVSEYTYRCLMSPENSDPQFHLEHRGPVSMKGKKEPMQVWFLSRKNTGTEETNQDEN
T1 sequence (P19686 1-690 partner): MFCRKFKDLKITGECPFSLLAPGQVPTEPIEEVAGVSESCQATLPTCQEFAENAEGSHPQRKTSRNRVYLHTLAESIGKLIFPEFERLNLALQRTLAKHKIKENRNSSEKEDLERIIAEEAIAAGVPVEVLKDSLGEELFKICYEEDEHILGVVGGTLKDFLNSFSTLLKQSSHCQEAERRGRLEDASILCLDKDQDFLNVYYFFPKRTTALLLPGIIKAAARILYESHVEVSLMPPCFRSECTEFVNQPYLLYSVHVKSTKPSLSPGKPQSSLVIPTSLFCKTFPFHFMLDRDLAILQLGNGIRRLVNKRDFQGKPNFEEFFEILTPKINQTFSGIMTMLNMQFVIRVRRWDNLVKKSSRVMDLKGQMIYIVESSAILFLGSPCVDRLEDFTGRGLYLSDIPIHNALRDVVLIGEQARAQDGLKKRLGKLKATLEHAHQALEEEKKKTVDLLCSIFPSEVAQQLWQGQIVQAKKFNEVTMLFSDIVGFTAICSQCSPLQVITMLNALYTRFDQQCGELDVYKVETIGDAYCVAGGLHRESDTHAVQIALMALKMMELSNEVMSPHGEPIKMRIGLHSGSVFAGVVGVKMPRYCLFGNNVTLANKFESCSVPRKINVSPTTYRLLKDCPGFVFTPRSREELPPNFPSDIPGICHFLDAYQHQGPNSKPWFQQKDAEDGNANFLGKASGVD
Method: B-2. Stimulation of sGC Enzyme Activity
Soluble guanylate cyclase (sGC) converts on stimulation GTP into cGMP and pyrophosphate (PPi). PPi is detected with the aid of the assay described below. The signal produced in the assay increases as the reaction progresses and serves as a measure of the sGC enzyme activity under the given stimulation.
To carry out the assay, 29 μl of enzyme solution [0-10 nM soluble guanylate cyclase (prepared according to Honicka et al., J. Mol. Med. 77, 14-23 (1999)) in 50 mM TEA, 2 mM MgCl2, 0.1% BSA (fraction V), 0.005% Brij®, pH 7.5] are initially introduced into a microplate, and 1 μl of the substance to be tested (as a serially diluted solution in DMSO) is added. The mixture is incubated at room temperature for 10 min. Then 20 μl of detection mix [1.2 nM Firefly Luciferase (Photinus pyralis luciferase, Promega), 29 μM dehydroluciferin (prepared according to Bitler & McElroy, Arch. Biochem. Biophys. 72, 358 (1957)), 122 μM luciferin (Promega), 153 μM ATP (Sigma) and 0.4 mM DTT (Sigma) in 50 mM TEA, 2 mM MgCl2, 0.1% BSA (fraction V), 0.005% Brij®, pH 7.5] are added. The enzyme reaction is started by adding 20 μl of substrate solution [1.25 mM guanosine 5′-triphosphate (Sigma) in 50 mM TEA, 2 mM MgCl2, 0.1% BSA (fraction V), 0.005% Brij®, pH 7.5] and measured continuously in a luminometer. The extent of the stimulation by the substance to be tested can be determined relative to the signal of the unstimulated reaction.
The activation of heme-free guanylate cyclase is examined by addition of 25 μM of 1H-1,2,4-oxadiazolo[4,3-a]quinoxalin-1-one (ODQ) to the enzyme solution and subsequent incubation for 30 minutes and compared to the stimulation of the native enzyme.

[2] = test system: rabbit saphenous artery rings; test: Vasorelaxant effect in vitro on phenylephrine-contracted saphenous artery rings; parameters: species or system Rabbits; details: Oryctolagus cuniculus, contraction induced by phenylephrine
Method: B-3. Vasorelaxant Effect In Vitro:
Rabbits are anesthetized and sacrificed by intravenous injection of thiopental sodium (about 50 mg/kg) and exsanguinated. The saphenous artery is removed and divided into rings 3 mm wide. The rings are mounted singly on in each case a pair of triangular hooks open at the end and made of 0.3 mm-thick special wire (Remanium®). Each ring is placed under an initial tension in 5 ml organ baths with Krebs-Henseleit solution which is at 37° C., is gassed with carbogen and has the following composition: NaCl 119 mM; KCl 4.8 mM; CaCl2×2 H2O 1 mM; MgSO4×7 H2O 1.4 mM; KH2PO4 1.2 mM; NaHCO3 25 mM; glucose 10 mM; bovine serum albumin 0.001%. The force of contraction is detected with Statham UC2 cells, amplified and digitized via A/D converters (DAS-1802 HC, Keithley Instruments, Munich) and recorded in parallel on chart recorders. Contractions are induced by addition of phenylephrine.
After several (generally 4) control cycles, the substance to be investigated is added in each further run in increasing dosage, and the level of the contraction achieved under the influence of the test substance is compared with the level of the contraction reached in the last preceding run. The concentration necessary to reduce the contraction reached in the preceding control by 50% is calculated from this (IC50). The standard application volume is 5 μl. The proportion of DMSO in the bath solution corresponds to 0.1%.

[3] = molecular target: T2, soluble guanylate cyclase (sGC), recombinant guanylate cyclase reporter cell line (CHO) (Rattus norvegicus, UniProt P20595); test: Action at a recombinant guanylate cyclase reporter cell line (CHO reporter cell); format: cell-based
T2 construct: expressed in transfected cells; host or cells: CHO
T2 sequence (P20595 1-619): T1 sequence (P20595 1-619)
T2 sequence (P19686 1-690 partner): T1 sequence (P19686 1-690 partner)
Method: B-1. Action at a Recombinant Guanylate Cyclase Reporter Cell Line
The cellular action of the compounds according to the invention is determined at a recombinant guanylate cyclase reporter cell line, as described in F. Wunder et al., Anal. Biochem. 339, 104-112 (2005).

MEC (minimum effective concentration), activating action at the sGC enzyme in vitro [1]	EC50 [1]	IC50 [2]	MEC (minimum effective concentration), sGC-activating activity in the CHO reporter cell in vitro [3]	Compound
0.12 nM	8.5 nM	113 nM	0.3 nM	CC(C)(C)c1ccc(COc2cccc3c2CC(N(CCCCC(=O)O)Cc2ccc(C(=O)O)cc2)CC3)cc1 (racemic) [Example 1, rac-4-{[{8-[(4-tert-Butylbenzyl)oxy]-1,2,3,4-tetrahydronaphthalen-2-yl}(4-carboxybutyl)amino]-methyl}benzoic acid]
0.13 nM	1.4 nM	9140 nM	0.3 nM	O=C(O)CCCCN(Cc1ccc(C(=O)O)cc1)C1CCc2cccc(OCc3ccc(CCc4ccccc4)cc3)c2C1 (single isomer, unassigned) [Example 5]
0.7 nM	7.5 nM	–	3.0 nM	O=C(O)CCCCN(Cc1ccc(C(=O)O)cc1)C1CCc2cccc(OCc3ccc(CCc4ccccc4)cc3)c2C1 (centres unmarked) [Example 4]
–	–	4380 nM	–	O=C(O)CCCCN(Cc1ccc(C(=O)O)cc1)C1CCc2cccc(OCc3ccc(CCc4ccccc4)cc3)c2C1 (centres unmarked) [Example 6]
830 nM	–	–	–	O=C(O)CCCCN(Cc1ccc(C(=O)O)cc1)C1CCc2cccc(OCCCN3CCCC3=O)c2C1 (centres unmarked) [Example 7]
700 nM	–	–	–	O=C(O)CCCCN(Cc1ccc(C(=O)O)cc1)C1CCc2cccc(OCCCN3CCOCC3=O)c2C1 (centres unmarked) [Example 9]
48 nM	620 nM	–	30 nM	CC(C)CCCCOc1cccc2c1CC(N(CCCCC(=O)O)Cc1ccc(C(=O)O)cc1)CC2 (centres unmarked) [Example 10]
200 nM	–	–	300 nM	O=C(O)CCCCN(Cc1ccc(C(=O)O)cc1)C1CCc2cccc(OCc3cccc(F)c3)c2C1 (centres unmarked) [Example 11]
205 nM	–	–	–	CC(C)(C)c1nc(COc2cccc3c2CC(N(CCCCC(=O)O)Cc2ccc(C(=O)O)cc2)CC3)no1 (centres unmarked) [Example 12]
